Data on two molecules can be found in patent EP2098236A1, “Cytostatic compositions” (Medizinische Hochschule Hannover, priority 2008, dated 2009).

Series [1] concerns TPMT wildtype lymphoblastoid cells. As to the kind of experiment: cells. Particulars: Homo sapiens, Lymphoblastoid cell, 72 h, read-out: Mean percentage viable cells after 72 h.
For series [2] the following is noted: in vivo; cited from earlier work.
For series [3], the system named is patients with childhood ALL. Particulars: cited from earlier work; for central nervous system (CNS) relapse: COALL-92, maintenance, p = 0.053.
Series [4] has as its system childhood ALL. Particulars: CCG-1952, cited from earlier work; for event-free survival: at 5 years, p = 0.02.
In series [5] the test system is childhood ALL. Particulars: UK MRC ALL 97, cited from earlier work.

As for `Nc1nc2nc[nH]c2c(=S)[nH]1` [TG, 6-thioguanine], in series [1], the viability at 0.0625 µM was determined as 81.2%, the viability at 0.125 µM was found to be 75.9% and the viability at 0.25 µM amounted to 71.3%. For the same molecule, in series [2], the half lives is roughly 90 min. Besides, the “central nervous system (CNS) relapse” value in series [3] was 3.4%. In series [3] (COALL-92), the Treatment interruptions is 4.7 % of maintenance treatment weeks; the “Treatment interruptions, higher rate compared to the 6-mercaptopurine arm” value is listed as 1.7 fold; the “incidence of thrombocytopenia (< 100 x 10^9/l) without evidence of leukocytopenia (<1 x 10^9/l), higher compared to the 6-mercaptopurine arm” value is 7.5 fold. Besides, in series [4], the event-free survival was 85.1% and the “patients with hepatic VOD-like symptoms” value is listed as “approximately 20%”. Moreover, in series [5], the “patients who developed non-fatal hepatic toxicity with features of veno-occlusive disease (VOD)” value is 11%. Moreover, in series [5] (vs 6-mercaptopurine, 95% confidence interval 0.30 - 0.92), the “isolated disease recurrence in the CNS, odds ratio” value is 0.53. Besides, the “risk of death in remission, odds ratio” value in series [5] (vs 6-mercaptopurine, 95% confidence interval 1.20 - 4.14, mainly due to infections) is 2.22.
Consider `Sc1ncnc2nc[nH]c12` [MP, 6-mercaptopurine], for which, in series [1], the viability at 0.125 µM is 89.3%, the viability at 0.25 µM came out at 84.7%, the viability at 0.5 µM is 79.8% and the viability at 1 µM amounted to 73.1%. Moreover, the half lives entry in series [2] is “approximately 21 minutes”. In addition, in series [3], the “central nervous system (CNS) relapse” value is recorded as 0.8%. Besides, the Treatment interruptions in series [3] (COALL-92) is on record as 2.8 % of maintenance treatment weeks. Also, in series [4], the event-free survival is reported as 77.1%. For the same molecule, the “patients who developed non-fatal hepatic toxicity with features of veno-occlusive disease (VOD)” value in series [5] is “less than 2%”.
